From publication PMC8950828 (Viruses, 2022)
Like-named read-outs stand apart in the source and are kept apart here.

Experiments:
[1] = system: primary human immune cells (monocytes, M1 macrophages, M2 macrophages, MdDCs and T cells); test: Orangu cell viability assay, primary human immune cells overall; conditions: all tested immune cell types, 0.5–100 nM
in vitro [2] = conditions: human
in vitro [3] = conditions: human; remark: listed apart in the source
in vitro [4] = conditions: human; remark: listed apart in the source
in vitro [5] = conditions: human; remark: listed apart in the source
in vitro [6] = conditions: human; remark: listed apart in the source
[7] = system: monocyte-derived dendritic cells (MdDCs); conditions: human
M2 macrophages = conditions: human
MERS-CoV [8] = type: cell-based, Middle East respiratory syndrome coronavirus
[9] = system: 5′-UTRs of HCoV-229E, MERS-CoV and SARS-CoV-2; type: cell-based, human
5′-UTR of HEV (HEVgt3c) = type: cell-based, human
MERS-CoV [10] = conditions: cited from earlier work
SARS-CoV-2 [11] = conditions: cited from earlier work
HCoV-229E [12] = conditions: cited from earlier work
SARS-CoV-2 [13] = conditions: cited from earlier work; remark: listed apart in the source
MERS-CoV [14] = test: microbe, parasite or virus in culture; type: cell-based, Middle East respiratory syndrome coronavirus
SARS-CoV-2 [15] = test: microbe, parasite or virus in culture; type: cell-based
HCoV-229E [16] = test: microbe, parasite or virus in culture; type: cell-based, human coronavirus 229E

Q: Which results are given for `CONC(=O)[C@@H]1[C@H](O)[C@]2(O)c3c(OC)cc(OC)cc3O[C@]2(c2ccc(OC)cc2)[C@H]1c1ccccc1` [CR-1-30-B]?
A: impact on cell viability [1]: essentially no impact on cell viability at all; CC50 (in vitro [2]): > 100 nM; CC50 (in vitro [3]): > 100 nM; CC50 (in vitro [4]): > 100 nM; CC50 (in vitro [5]): > 100 nM; CC50 (in vitro [6]): > 100 nM

Q: Which reduction of viability [7] does the source give for `CONC(=O)[C@H]1[C@@H](O)[C@@]2(O)c3c(OC)cc(OC)cc3O[C@@]2(c2ccc(OC)cc2)[C@@H]1c1ccccc1` [CR-1-31-B] here?
A: approximately 50%

Q: And the reduction of viability (M2 macrophages)?
A: approximately 50%

Q: What about the “effect on the replication of MERS-CoV” value (MERS-CoV [8]) of the same molecule?
A: no significant effect

Q: What about the “reduction of viral replication” value (MERS-CoV [8]) of the same molecule?
A: nearly undetectable levels

Q: And the “translation efficiency (reporter gene expression) with coronavirus 5′-UTRs” value [9]?
A: sensitive

Q: What about the “translation inhibition of HEVgt3c 5′-UTR reporter” value (5′-UTR of HEV (HEVgt3c)) of the same molecule?
A: translation inhibition only in the presence of a polypurine stretch

Q: What about the “translation inhibition of HEVgt3c-Purine” value (5′-UTR of HEV (HEVgt3c)) of the same molecule?
A: regain translation inhibition

Q: And the EC50 (MERS-CoV [10])?
A: 1.9 nM

Q: What about the EC50 (SARS-CoV-2 [11]) of the same molecule?
A: 1.8 nM

Q: And the effect on viability (T cells)?
A: not affected

Q: And the EC50 (HCoV-229E [12])?
A: 2.9 nM

Q: And the TEER signal reduction (NHBE cells; human)?
A: ~ 25%

Q: With `COC(=O)[C@H]1[C@@H](O)[C@@]2(O)c3c(OC)cc(O[C@@H]4O[C@@H]([C@H](O)CO)CO[C@H]4OC)cc3O[C@@]2(c2ccc(OC)cc2)[C@@H]1c1ccccc1` [Silvestrol] as the molecule, how does the reduction of viability [7] read?
A: approximately 50%

Q: What about the reduction of viability (M2 macrophages) of the same molecule?
A: approximately 50%

Q: What about the “translation efficiency (reporter gene expression) with coronavirus 5′-UTRs” value [9] of the same molecule?
A: sensitive

Q: What about the “translation inhibition of HEVgt3c 5′-UTR reporter” value (5′-UTR of HEV (HEVgt3c)) of the same molecule?
A: either a stable hairpin substrate or a polypurine stretch is sufficient

Q: And the “translation inhibition of HEVgt3c-Purine” value (5′-UTR of HEV (HEVgt3c))?
A: regain translation inhibition

Q: What about the “translation inhibition of destabilized variants” value (5′-UTR of HEV (HEVgt3c)) of the same molecule?
A: loss of the inhibitory effects

Q: And the EC50 (MERS-CoV [10])?
A: 1.3 nM

Q: What about the effect on viability (T cells) of the same molecule?
A: not affected

Q: And the EC50 (HCoV-229E [12])?
A: 3 nM

Q: What does the source list for `COc1cc2c(c(OC)n1)[C@]1(O)[C@H](O)[C@H](CN(C)C)[C@@H](c3ccccc3)[C@]1(c1ccc(C#N)cc1)O2` [Zotatifin]?
A: EC90 (SARS-CoV-2 [13]): 37 nM; EC50 (MERS-CoV [14]): 4.31 nM; EC50 (MERS-CoV [14]; Middle East respiratory syndrome-related coronavirus, MRC5): 4.3 nM; EC50 (SARS-CoV-2 [15]): 41.6 nM; fold less efficient (higher EC50) than CR-1-31-B against SARS-CoV-2 (SARS-CoV-2 [15]): around 20 fold; EC50 (SARS-CoV-2 [15]; Severe acute respiratory syndrome coronavirus 2, Vero C1008): 41.6 nM; viability reduced to (human monocytes): approximately 75%; EC50 (HCoV-229E [16]): 3.86 nM; EC50 (HCoV-229E [16]; Human coronavirus 229E, MRC5): 3.9 nM; effect on the replication of MERS-CoV (MERS-CoV [8]): no significant effect; reduction of viral replication (MERS-CoV [8]): about two orders of magnitude; translation efficiency (reporter gene expression) with coronavirus 5′-UTRs [9]: sensitive; translation inhibition compared with 10 nM of silvestrol or CR-1-31-B [9]: slightly weaker; translation inhibition of HEVgt3c 5′-UTR reporter (5′-UTR of HEV (HEVgt3c)): translation inhibition; translation inhibition of HEVgt3c-Purine (5′-UTR of HEV (HEVgt3c)): regain translation inhibition; translation inhibition of destabilized variants (5′-UTR of HEV (HEVgt3c)): loss of the inhibitory effects; cytotoxicity by TEER (NHBE cells): no significant cytotoxicity; cytotoxicity (MRC-5 cells): no significant cytotoxicity
